Data on two compounds can be found in patent US20240398771A1, “TREATMENT OF SCLERODERMA AND RAYNAUD'S SYNDROME” (Aisa Pharma, Inc., priority 2023, published 2024).

Type in all cases: in vivo, human
In assay [1] the test system is participants with SSc-RP. The experiment in a line: SHAQ Alternative Disability Index. From the text:
The standard, validated, patient reported outcome measures tool for SSc patients, the Scleroderma Health Assessment Questionnaire (SHAQ), will be used to assess the participant qualify of life. Details are attached in the Appendix. The participant quality of life will be scored, and a disability index calculated for each questionnaire completed by the patient at Screening and each in-clinic visit. The absolute change in participant quality of life from baseline to the end of each dosing period will be calculated similar to frequency data as before.
The SHAQ is used to calculate a Disability Index to assess the participant qualify of life. The eight categories assessed by the Disability Index are 1) dressing and grooming, 2) arising, 3) eating, 4) walking, 5) hygiene, 6) reach, 7) grip, and 8) common daily activities. For each of these categories, patients report the amount of difficulty they have in performing two or three specific activities.
There are four possible responses for the Disability Index questions: • Without any difficulty=0 • With some difficulty=1 • With much difficulty=2 • Unable to do=3 • The highest score reported by the patient for any component question of the eight categories determines the score for that category. • If a component question is left blank or the response is too ambiguous to assign a score, then the score for that category is determined by the remaining completed question(s). • If all component questions are blank or if more than one answer is given, then follow up with the respondent is required. • If the respondent's mark is between the response columns, then move it to the closest one. If it's directly between the two, move it to the higher one.
The scoring variables and scoring rules permit the computation of two disability indices, the Standard Disability Index and the Alternative Disability Index.
The aid and device variables are not used to calculate the alternative disability index; it is calculated by adding the scores for each of the categories and dividing by the number of categories answered. This gives a score in the 0 to 3 range.

For assay [2], the system named is participants with SSc-RP. The experiment in a line: SHAQ Visual Analog Scale - Breathing Problems. Further details: Visual Analog Scale-Breathing Problems, Baseline, Mean / Visual Analog Scale-Breathing Problems, Baseline, Median / Visual Analog Scale-Breathing Problems, In Clinic Visit (Day 12), Mean / Visual Analog Scale-Breathing Problems, In Clinic Visit (Day 12), Median / Visual Analog Scale-Breathing Problems, Change from Baseline, Mean / Visual Analog Scale-Breathing Problems, Change from Baseline, Median: scale not given here. The settings on record: for % improvement in Breathing (median): mITT. Here is the method: (§1) Results: Patients in the study were administered the Scleroderma Health Assessment Questionnaire (SHAQ) at the time of study entry and during clinic visits following the treatment period. The study is a two-part, parallel arm design, prospective, double-blind, randomized study conducted in Australia (Flinders Medical Center). 27 patients were randomized into the first phase of the study, following which a DSMB meeting was held, which reviewed data on the primary study endpoint and key Raynaud's secondary endpoints. Data on the SHAQ was not available for the DSMB to review. The mITT population, in which any data was available post treatment was 24 patients was the analysis population for this first part of the study. The second part (i.e., part B) of the study will randomize 36 patients in a double blind, randomized, prospective, placebo controlled, crossover study. In the first part (i.e., Part A) of the study for which data is presented, patients were randomized into 6 groups, cilnidipine at two doses (10 and 20 mg) alone and in combination with tadalafil 5 mg, tadalafil 5 mg alone, and placebo. […] The DSMB recommended that the study proceed into its double blind prospective cross overpowered second phase and compare cilnidipine 20 mg alone to placebo. […] Cilnidipine treatment may reduce patient-reported SSc disease disability compared to placebo • b. Cilnidipine treatment may reduce patient-reported SSc disease alternative disability compared to placebo • c. Cilnidipine treatment may reduce patient-reported SSc disease pain* compared to placebo • d. Cilnidipine treatment may reduce patient-reported SSc disease severity compared to placebo • e. Cilnidipine treatment may reduce patient-reported SSc disease skin ulcer severity rating compared to placebo • f Cilnidipine treatment may reduce patient-reported SSc disease breathing difficulty compared to placebo • g. […] SSc disease pain comprises not only pain from Raynaud's but joint pain, headache, odynophagia, back pain, pain from skin ulceration, and neuropathic pain). Table E includes results of the Scleroderma Health Assessment Questionnaire.

Assay [3] deals with participants with SSc-RP. Nature of the assay: SHAQ Visual Analog Scale - Finger Ulcers. Further details: Finger Ulcers, Baseline, Mean / Finger Ulcers, Baseline, Median / Finger Ulcers, Change from Baseline, Mean / Finger Ulcers, Change from Baseline, Median: scale not given here. Here is the method:
as §1

[4] abbreviates: Cilnidipine 10 mg, Modified ITT, Part A.
The mark [5] stands for this setting: Cilnidipine 20 mg, Modified ITT, Part A.
[6] abbreviates: Tadalafil 5 mg, Modified ITT, Part A.

Turning to `COCCOC(=O)C1=C(C)NC(C)=C(C(=O)OC/C=C/c2ccccc2)C1c1cccc([N+](=O)[O-])c1` (centres unmarked) [Cilnidipine, 1,4-dihydro-2,6-dimethyl,4-(3-nitrophenyl)-3,5-pyridinedicarboxylic acid 2-methoxyethyl (2 E)-3-phenyl-2-propenyl ester], the “Alternative disability index, Baseline, Mean” value with participants with SSc-RP [1] (setting [4]) is 0.500. In addition, the “Alternative disability index, Baseline, Median” value with participants with SSc-RP [1] (setting [5]) is given as 0.250. In addition, the “patient-reported SSc disease alternative disability compared to placebo” value with participants with SSc-RP [1] (Example 4, SHAQ, mITT Part A) was “may reduce”. Also, the figures for the “Visual Analog Scale-Breathing Problems, Baseline, Median” value with participants with SSc-RP [2] (setting [4]) and in the assay on participants with SSc-RP [2] (setting [5]) were 0.000 and 1.200, respectively. Also, the “% improvement in Breathing (median)” value in the assay with participants with SSc-RP [2] (Cilnidipine 20 mg (n = 3), SHAQ) is reported as 67% (median); in the assay on participants with SSc-RP [2] (Pooled Cilnidipine (n = 7), SHAQ), 41% (median). The “VAS - Breathing problems, Baseline on a 0-10 VAS” value in the assay with participants with SSc-RP [2] (Cilnidipine 20 mg (n = 3), last footnote) is “**Baseline was 1.13 on a 0-10 VAS”. In the assay on participants with SSc-RP [2] (Example 4, SHAQ, mITT Part A), the “patient-reported SSc disease breathing difficulty compared to placebo” value is reported as “may reduce”. The “Finger Ulcers, Baseline, Mean” value is given as 0.700 in the assay with participants with SSc-RP [3] (setting [4]) and 1.800 in the assay with participants with SSc-RP [3] (setting [5]). In addition, the “Finger Ulcers, Baseline, Median” value was 0.500 in the assay with participants with SSc-RP [3] (setting [4]) and 0.300 in the assay on participants with SSc-RP [3] (setting [5]). The “Finger Ulcers, Change from Baseline, Median” value is listed as −0.350 in the assay on participants with SSc-RP [3] (setting [4]) and 0.000 in the assay on participants with SSc-RP [3] (setting [5]). For the same compound, the “Finger Ulcers, In Clinic Visit (Day 12), Median” value with participants with SSc-RP [3] (setting [4]) stood at 0.000; in the assay with participants with SSc-RP [3] (setting [5]) it was 0.700. Also, the “patient-reported SSc disease skin ulcer severity rating compared to placebo” value with participants with SSc-RP [3] (Example 4, SHAQ, mITT Part A) is recorded as “may reduce”.

Consider `CN1CC(=O)N2[C@H](c3ccc4c(c3)OCO4)c3[nH]c4ccccc4c3C[C@@H]2C1=O` [Tadalafil], for which, in the assay with participants with SSc-RP [1] (setting [6]), the “Alternative disability index, Baseline, Mean” value stood at 0.688; the “Alternative disability index, Change from Baseline, Mean” value is recorded as −0.071; the “Alternative disability index, Change from Baseline, Median” value was −0.063; the “Alternative disability index, In Clinic Visit (Day 12), Mean” value is 0.616. In the assay on participants with SSc-RP [1] (setting [6]), the “Alternative disability index, In Clinic Visit (Day 12), Median” value was 0.482; the “Alternative disability index, Percent Change from Baseline, Mean” value is 21.25%; the “Alternative disability index, Percent Change from Baseline, Median” value is on record as −7.69%. Besides, in the assay with participants with SSc-RP [2] (setting [6]), the “Visual Analog Scale-Breathing Problems, Baseline, Mean” value came to 1.025; the “Visual Analog Scale-Breathing Problems, Baseline, Median” value is recorded as 0.450; the “Visual Analog Scale-Breathing Problems, Change from Baseline, Mean” value was 0.925; the “Visual Analog Scale-Breathing Problems, Change from Baseline, Median” value is on record as 0.300. Also, in the assay on participants with SSc-RP [2] (setting [6]), the “Visual Analog Scale-Breathing Problems, In Clinic Visit (Day 12), Mean” value is 1.950; the “Visual Analog Scale-Breathing Problems, In Clinic Visit (Day 12), Median” value is given as 0.450; the “Visual Analog Scale-Breathing Problems, Percent Change from Baseline, Mean” value is listed as 213.54%; the “Visual Analog Scale-Breathing Problems, Percent Change from Baseline, Median” value worked out at 115.63%. In the assay with participants with SSc-RP [3] (setting [6]), the “Finger Ulcers, Baseline, Mean” value is 2.125; the “Finger Ulcers, Baseline, Median” value is 0.050; the “Finger Ulcers, Change from Baseline, Mean” value is −0.967; the “Finger Ulcers, Change from Baseline, Median” value was −0.100. Also, in the assay with participants with SSc-RP [3] (setting [6]), the “Finger Ulcers, In Clinic Visit (Day 12), Mean” value is reported as 1.867; the “Finger Ulcers, In Clinic Visit (Day 12), Median” value amounted to 0.000; the “Finger Ulcers, Percent Change from Baseline, Mean” value was −66.67%; the “Finger Ulcers, Percent Change from Baseline, Median” value is reported as −66.67%.
